We go through 19 compounds from patent US8779197B2, “Aryl amides useful as inhibitors of voltage-gated sodium channels” (Vertex Pharmaceuticals Incorporated, priority 2007, dated 2014).

Each structure is given as a SMILES string. Where two headings read alike, the source gives them in different places.

For one test, the target named is NaV 1.7 channel (Homo sapiens, UniProt Q15858). The test can be described thus: Activity against NaV 1.7 channel (optical membrane potential assay). It is filed as cell-based. The method, then:
(§1) Compounds of the invention are useful as antagonists of voltage-gated sodium ion channels. Antagonist properties of test compounds were assessed as follows. Cells expressing the NaV of interest were placed into microtiter plates. After an incubation period, the cells were stained with fluorescent dyes sensitive to the transmembrane potential. The test compounds were added to the microtiter plate. The cells were stimulated with either a chemical or electrical means to evoke a NaV dependent membrane potential change from unblocked channels, which was detected and measured with trans-membrane potential-sensitive dyes. Antagonists were detected as a decreased membrane potential response to the stimulus. The optical membrane potential assay utilized voltage-sensitive FRET sensors described by Gonzalez and Tsien (See, Gonzalez, J. E. and R. Y. Tsien (1995) “Voltage sensing by fluorescence resonance energy transfer in single cells” Biophys J 69(4): 1272-80, and Gonzalez, J. E. and R. Y. Tsien (1997) “Improved indicators of cell membrane potential that use fluorescence resonance energy transfer” Chem Biol 4(4): 269-77) in combination with instrumentation for measuring fluorescence changes such as the Voltage/Ion Probe Reader (VIPR®) (See, Gonzalez, J. E., K. Oades, et al. (1999) “Cell-based assays and instrumentation for screening ion-channel targets” Drug Discov Today 4(9): 431-439).
(§2) C) VIPR® Optical Membrane Potential Assay Method with Electrical Stimulation
(§3) The following is an example of how NaV1.3 inhibition activity is measured using the optical membrane potential method#2. Other subtypes are performed in an analogous mode in a cell line expressing the NaV of interest.
(§4) 10 mM CC2-DMPE is vortexed with an equivalent volume of 10% pluronic, followed by vortexing in required amount of HBSS containing 10 mM HEPES. Each cell plate will require 5 mL of 2×CC2-DMPE. 50 µL of 2×CC2-DMPE is to wells containing washed cells, resulting in a 10 μM final staining concentration. The cells are stained for 30 minutes in the dark at RT.
(§5) The required amount of 10 mM DISBAC2(3) is added to a 50 ml conical tube and mixed with 1 μL 10% pluronic for each mL of solution to be made and vortexed together. Then HBSS/HEPES is added to make up 2× solution. Finally, the ABSC1 is added.
(§6) The 2×DiSBAC2(3) solution can be used to solvate compound plates. Note that compound plates are made at 2× drug concentration. Wash stained plate again, leaving residual volume of 50 μL. Add 50 uL/well of the 2×DiSBAC2(3) w/ABSC1. Stain for 30 minutes in the dark at RT.
(§7) The electrical stimulation instrument and methods of use are described in ION Channel Assay Methods PCT/US01/21652, herein incorporated by reference. The instrument comprises a microtiter plate handler, an optical system for exciting the coumarin dye while simultaneously recording the coumarin and oxonol emissions, a waveform generator, a current- or voltage-controlled amplifier, and a device for inserting electrodes in well. Under integrated computer control, this instrument passes user-programmed electrical stimulus protocols to cells within the wells of the microtiter plate.
(§8) Assay Protocol • 1. Insert or use electrodes into each well to be assayed. • 2. Use the current-controlled amplifier to deliver stimulation wave pulses for 3 s. Two seconds of pre-stimulus recording are performed to obtain the un-stimulated intensities. Five seconds of post-stimulation recording are performed to examine the relaxation to the resting state.
(§9) Data are analyzed and reported as normalized ratios of background-subtracted emission intensities measured in the 460 nm and 580 nm channels. Background intensities are then subtracted from each assay channel. Background intensities are obtained by measuring the emission intensities during the same time periods from identically treated assay wells in which there are no cells. The response as a function of time is then reported as the ratios obtained using the following formula: […]

The target of test [1] is T1, NaV1.3 (Homo sapiens, UniProt Q9NY46). Kind of test: Activity against NaV 1.3 channel (optical membrane potential assay). Format: cell-based. Further details: expressed in transfected cells; host or cells: HEK293. The method, then: as §1, §2, §3
Target sequence in this assay (Q9NY46 whole entry): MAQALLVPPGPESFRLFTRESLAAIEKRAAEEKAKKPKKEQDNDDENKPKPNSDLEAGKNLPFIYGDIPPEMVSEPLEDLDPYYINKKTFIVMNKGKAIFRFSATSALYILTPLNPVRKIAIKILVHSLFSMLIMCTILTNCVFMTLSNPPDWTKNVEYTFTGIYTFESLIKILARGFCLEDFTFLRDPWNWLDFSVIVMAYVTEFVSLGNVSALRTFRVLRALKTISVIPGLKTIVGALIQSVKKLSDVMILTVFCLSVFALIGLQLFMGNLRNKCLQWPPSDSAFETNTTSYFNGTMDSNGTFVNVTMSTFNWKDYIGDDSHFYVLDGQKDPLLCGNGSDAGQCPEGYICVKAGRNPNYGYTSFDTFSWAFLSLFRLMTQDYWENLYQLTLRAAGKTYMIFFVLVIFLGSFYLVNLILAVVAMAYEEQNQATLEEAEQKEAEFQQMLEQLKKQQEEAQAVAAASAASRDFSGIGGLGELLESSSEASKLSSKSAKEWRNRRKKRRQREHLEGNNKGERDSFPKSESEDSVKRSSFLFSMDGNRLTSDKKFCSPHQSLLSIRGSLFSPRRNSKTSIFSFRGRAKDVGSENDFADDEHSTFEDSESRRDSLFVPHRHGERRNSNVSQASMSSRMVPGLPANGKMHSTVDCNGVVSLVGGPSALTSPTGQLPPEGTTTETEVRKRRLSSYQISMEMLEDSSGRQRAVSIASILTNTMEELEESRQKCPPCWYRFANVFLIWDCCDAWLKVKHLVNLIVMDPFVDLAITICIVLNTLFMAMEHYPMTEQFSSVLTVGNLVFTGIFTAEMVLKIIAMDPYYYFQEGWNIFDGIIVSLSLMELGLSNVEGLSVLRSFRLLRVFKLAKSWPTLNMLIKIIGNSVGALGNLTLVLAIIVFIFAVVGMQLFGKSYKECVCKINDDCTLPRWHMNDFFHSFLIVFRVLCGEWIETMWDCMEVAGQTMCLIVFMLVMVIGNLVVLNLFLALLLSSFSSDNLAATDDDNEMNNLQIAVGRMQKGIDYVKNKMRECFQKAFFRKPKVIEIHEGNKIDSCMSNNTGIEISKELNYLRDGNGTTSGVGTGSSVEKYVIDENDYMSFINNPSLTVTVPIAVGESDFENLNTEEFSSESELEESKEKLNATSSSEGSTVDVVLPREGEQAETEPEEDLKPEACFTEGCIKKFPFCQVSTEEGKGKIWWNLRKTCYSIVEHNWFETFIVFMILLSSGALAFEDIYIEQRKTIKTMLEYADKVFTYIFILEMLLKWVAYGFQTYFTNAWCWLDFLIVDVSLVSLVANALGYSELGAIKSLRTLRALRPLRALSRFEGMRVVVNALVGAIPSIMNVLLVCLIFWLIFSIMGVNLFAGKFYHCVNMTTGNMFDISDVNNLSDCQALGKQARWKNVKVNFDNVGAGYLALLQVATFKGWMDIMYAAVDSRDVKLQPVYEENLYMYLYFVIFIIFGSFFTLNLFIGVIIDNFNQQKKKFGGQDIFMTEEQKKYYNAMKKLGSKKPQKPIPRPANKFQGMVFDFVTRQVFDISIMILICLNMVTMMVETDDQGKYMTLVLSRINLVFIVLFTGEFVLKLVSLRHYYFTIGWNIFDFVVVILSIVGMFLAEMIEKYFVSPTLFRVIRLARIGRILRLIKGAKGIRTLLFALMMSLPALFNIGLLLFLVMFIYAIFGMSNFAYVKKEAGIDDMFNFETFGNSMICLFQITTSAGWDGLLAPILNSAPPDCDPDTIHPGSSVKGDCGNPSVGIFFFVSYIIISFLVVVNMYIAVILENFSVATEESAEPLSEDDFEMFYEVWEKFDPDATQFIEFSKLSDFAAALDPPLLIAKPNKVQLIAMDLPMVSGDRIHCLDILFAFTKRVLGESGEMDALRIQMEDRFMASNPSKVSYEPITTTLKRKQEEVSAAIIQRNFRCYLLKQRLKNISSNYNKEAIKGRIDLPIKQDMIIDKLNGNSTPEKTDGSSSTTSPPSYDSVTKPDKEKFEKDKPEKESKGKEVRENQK
HEK293 cells stably expressing NaV1.3 are plated into 96-well microtiter plates. After an appropriate incubation period, the cells are stained with the voltage sensitive dyes CC2-DMPE/DiSBAC2(3) as follows.
as §4, §5, §6, §7, §8
Data are analyzed and reported as normalized ratios of background-subtracted emission intensities measured in the 460 nm and 580 nm channels. Background intensities are then subtracted from each assay channel. […]

A further test addresses NaV1.8 (Homo sapiens, UniProt Q9Y5Y9). Kind of test: Activity against NaV 1.8 channel (optical membrane potential assay). Format: cell-based. How it is done: as §1, §2, §3, §4, §5, §6, §7, §8, §9
The target of test [2] is T1, NaV1.3. The settings on record: read-out: TTX IC50; cited from earlier work.
Target sequence in this assay (Q9NY46 whole entry, looked up): as the sequence (Q9NY46 whole entry) above
Another test has as its target NaV1.1 (Homo sapiens, UniProt P35498). Conditions: read-out: TTX IC50; cited from earlier work.
A further test concerns the target NaV1.6 (Homo sapiens, UniProt Q9UQD0). Conditions: read-out: TTX IC50; cited from earlier work.
A further test addresses NaV1.9 (Homo sapiens, UniProt Q9UI33). Conditions: read-out: TTX IC50; cited from earlier work.
The target in the next test is NaV1.2 (Homo sapiens, UniProt Q99250). The settings on record: read-out: TTX IC50; cited from earlier work.

In general, IC50 refers to the concentration that gives 50% inhibition.

Sequence of NaV 1.7 channel (Q15858 whole entry): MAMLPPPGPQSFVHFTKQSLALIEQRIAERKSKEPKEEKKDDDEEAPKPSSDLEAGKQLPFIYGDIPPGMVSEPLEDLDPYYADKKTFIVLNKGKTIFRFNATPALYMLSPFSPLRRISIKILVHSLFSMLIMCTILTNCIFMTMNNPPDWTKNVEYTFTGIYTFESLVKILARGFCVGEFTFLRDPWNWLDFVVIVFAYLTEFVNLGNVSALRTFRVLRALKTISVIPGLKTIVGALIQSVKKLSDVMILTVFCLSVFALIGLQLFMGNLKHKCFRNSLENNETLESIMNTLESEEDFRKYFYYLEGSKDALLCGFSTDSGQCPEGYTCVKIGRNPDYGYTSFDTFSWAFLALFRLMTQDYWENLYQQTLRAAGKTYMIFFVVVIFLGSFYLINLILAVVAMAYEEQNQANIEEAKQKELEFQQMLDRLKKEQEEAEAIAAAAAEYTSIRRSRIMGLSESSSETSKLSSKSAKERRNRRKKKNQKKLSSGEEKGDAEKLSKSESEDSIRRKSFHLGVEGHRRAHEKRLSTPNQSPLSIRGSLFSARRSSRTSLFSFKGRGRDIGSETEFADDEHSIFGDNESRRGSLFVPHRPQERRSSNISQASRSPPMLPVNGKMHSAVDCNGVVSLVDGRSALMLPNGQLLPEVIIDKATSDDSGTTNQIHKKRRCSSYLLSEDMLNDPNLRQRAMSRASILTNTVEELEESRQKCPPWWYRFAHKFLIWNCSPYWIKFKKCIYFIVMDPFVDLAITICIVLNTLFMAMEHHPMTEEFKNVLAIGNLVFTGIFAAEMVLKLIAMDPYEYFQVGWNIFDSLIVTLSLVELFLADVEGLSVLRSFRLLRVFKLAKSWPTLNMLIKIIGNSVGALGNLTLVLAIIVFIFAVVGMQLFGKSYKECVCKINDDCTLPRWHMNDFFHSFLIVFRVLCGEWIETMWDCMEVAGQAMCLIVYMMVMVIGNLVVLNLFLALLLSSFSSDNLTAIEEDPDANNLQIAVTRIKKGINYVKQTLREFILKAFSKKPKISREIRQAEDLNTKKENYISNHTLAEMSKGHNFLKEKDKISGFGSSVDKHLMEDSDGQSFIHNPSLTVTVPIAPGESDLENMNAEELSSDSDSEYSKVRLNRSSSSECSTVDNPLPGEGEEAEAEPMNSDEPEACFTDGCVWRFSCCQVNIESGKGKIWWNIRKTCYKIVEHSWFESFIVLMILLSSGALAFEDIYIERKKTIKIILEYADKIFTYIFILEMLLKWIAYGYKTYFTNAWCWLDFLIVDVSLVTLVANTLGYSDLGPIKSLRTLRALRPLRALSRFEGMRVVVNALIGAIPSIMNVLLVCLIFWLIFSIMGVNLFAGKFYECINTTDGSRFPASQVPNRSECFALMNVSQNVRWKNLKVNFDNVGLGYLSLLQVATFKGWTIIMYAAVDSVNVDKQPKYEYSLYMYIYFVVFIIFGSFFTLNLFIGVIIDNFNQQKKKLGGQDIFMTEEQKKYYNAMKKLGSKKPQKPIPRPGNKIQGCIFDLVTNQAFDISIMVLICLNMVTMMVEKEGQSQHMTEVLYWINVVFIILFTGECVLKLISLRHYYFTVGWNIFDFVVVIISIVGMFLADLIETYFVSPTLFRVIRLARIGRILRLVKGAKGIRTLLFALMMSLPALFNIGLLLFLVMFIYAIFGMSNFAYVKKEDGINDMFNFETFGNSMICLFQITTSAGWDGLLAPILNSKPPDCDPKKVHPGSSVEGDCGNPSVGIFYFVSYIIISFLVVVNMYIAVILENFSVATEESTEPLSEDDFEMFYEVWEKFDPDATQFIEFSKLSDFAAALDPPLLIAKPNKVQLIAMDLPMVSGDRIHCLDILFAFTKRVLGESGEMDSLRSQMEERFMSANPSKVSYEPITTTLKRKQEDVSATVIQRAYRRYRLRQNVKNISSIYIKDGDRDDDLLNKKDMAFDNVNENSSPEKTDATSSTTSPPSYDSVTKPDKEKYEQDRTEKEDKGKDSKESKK

As for `Cc1ncccc1Oc1cc(C(C)(C)C)ccc1C(=O)Nc1cccc(S(C)(=O)=O)c1` [Compound 12], the IC50 on NaV 1.7 channel is 2 to 10 µM; on NaV1.3 [1] it was more than 20 µM; at NaV1.8, less than 2 µM.

Take `CC(C)(C)c1ccc(C(=O)Nc2cccc(C(N)=O)c2)c(Oc2ccc(C(F)(F)F)nc2)c1` [Compound 7]: the half-inhibitory concentration (IC50) is 2 to 10 µM at NaV 1.7 channel, 10 to 20 µM at NaV1.3 [1] and less than 2 µM at NaV1.8.

In the case of `NC1=N[C@H](O)[C@H]2[C@H]3O[C@]4(O)O[C@@H]([C@@H](O)[C@@]2(N1)[C@@H]4O)[C@]3(O)CO` [TTX, tetrodotoxin], the concentration for half-maximal inhibition (IC50) was 0.015 µM on NaV1.3 [2]; 0.01 µM at NaV1.1; 0.006 µM at NaV1.6; 1 µM on NaV1.9; 0.01 µM at NaV1.2.

For the compound `Cc1ncccc1Oc1cc(C(C)(C)C)ccc1C(=O)Nc1cccc(C(N)=O)c1` [Compound 6], the half-inhibitory concentration (IC50) at NaV 1.7 channel was more than 20 µM; on NaV1.3 [1] it was more than 20 µM; on NaV1.8, less than 2 µM.

Consider `CC(C)(C)c1ccc(C(=O)Nc2cccc(S(C)(=O)=O)c2)c(Oc2ncccc2C#N)c1` [Compound 14], for which the results for the half-maximal inhibitory concentration (IC50) on NaV 1.7 channel, at NaV1.3 [1] and at NaV1.8 were less than 2 µM, 2 to 10 µM and less than 2 µM, respectively.

For `NC(=O)c1cccc(NC(=O)c2ccccc2Oc2ccc(F)cc2)c1` [Compound 3, N-(3-carbamoylphenyl)-2-(4-fluorophenoxy)benzamide], the values for the IC50 at NaV1.3 [1] and at NaV1.8 were 10 to 20 µM and less than 2 µM, respectively.

As to `CC(C)(C)c1ccc(C(=O)Nc2cccc(C(N)=O)c2)c(Oc2ccc(F)cc2Cl)c1` [Compound 8], the results for the IC50 on NaV 1.7 channel, on NaV1.3 [1] and at NaV1.8 were 2 to 10 µM, 10 to 20 µM and less than 2 µM, respectively.

Consider `CNC(=O)c1cccc(NC(=O)c2ccc(C(C)(C)C)cc2Oc2ccc(F)cc2Cl)c1` [Compound 11], for which the concentration for half-maximal inhibition (IC50) on NaV 1.7 channel is 2 to 10 µM; on NaV1.3 [1], 2 to 10 µM; at NaV1.8, less than 2 µM.

For the compound `NC(=O)c1cccc(NC(=O)c2ccccc2Nc2cccc(F)c2)c1` [Compound 2], the concentration for half-maximal inhibition (IC50) at NaV1.3 [1] is more than 20 µM.

Regarding `CC(C)(C)c1ccc(C(=O)Nc2cccc(S(C)(=O)=O)c2)c(Oc2cnccc2C(F)(F)F)c1` [Compound 15], the IC50 on NaV 1.7 channel is 2 to 10 µM; on NaV1.3 [1], 2 to 10 µM; at NaV1.8, less than 2 µM.

For the compound `CC(C)(C)c1ccc(C(=O)Nc2cccc(S(C)(=O)=O)c2)c(Oc2cccc(C(F)(F)F)n2)c1` [Compound 17], the IC50 at NaV 1.7 channel is 10 to 20 µM; at NaV1.3 [1], 10 to 20 µM; on NaV1.8, less than 2 µM.

`CC(C)(C)c1ccc(C(=O)Nc2cccc(S(C)(=O)=O)c2)c(Oc2cccnc2C(F)(F)F)c1` [Compound 16]: the concentration for half-maximal inhibition (IC50) at NaV 1.7 channel is 2 to 10 µM; on NaV1.3 [1], 10 to 20 µM; at NaV1.8 it was less than 2 µM.

As to `CC(C)(C)c1ccc(C(=O)Nc2cccc(S(C)(=O)=O)c2)c(Oc2ncccc2C(F)(F)F)c1` [Compound 18], the figures for the IC50 at NaV 1.7 channel, on NaV1.3 [1] and at NaV1.8 were 2 to 10 µM, 10 to 20 µM and less than 2 µM, respectively.

Take `CC(C)(C)c1ccc(C(=O)Nc2cccc(S(C)(=O)=O)c2)c(Oc2ccc(F)cc2Cl)c1` [Compound 9]: the IC50 at NaV 1.7 channel is 2 to 10 µM; on NaV1.3 [1], 10 to 20 µM; at NaV1.8, less than 2 µM.

For the compound `CC(C)(C)c1ccc(C(=O)Nc2cccc(NS(C)(=O)=O)c2)c(Oc2ccc(F)cc2Cl)c1` [Compound 10], the half-maximal inhibitory concentration (IC50) at NaV 1.7 channel was in the range of 2 to 10 µM; on NaV1.3 [1], 10 to 20 µM; at NaV1.8, 2 to 10 µM.

For the compound `CN(C(=O)c1ccc(C(C)(C)C)cc1Oc1ccc(F)cc1Cl)c1cccc(S(C)(=O)=O)c1` [Compound 19, 4-tert-Butyl-2-(2-chloro-4-fluorophenoxy)-N-methyl-N-(3-(methylsulfonyl)phenyl)benzamide], the IC50 at NaV 1.7 channel, on NaV1.3 [1] and at NaV1.8 was 2 to 10 µM in each case.

With `NC(=O)c1cccc(NC(=O)c2ccccc2Oc2ccc(C(F)(F)F)cc2)c1` [Compound 5], the IC50 on NaV1.3 [1] was in the range of 10 to 20 µM.

`NC(=O)c1cccc(NC(=O)c2ccccc2Oc2ccc(Br)cc2)c1` [Compound 4]: the 50% inhibitory concentration (IC50) on NaV1.3 [1] was 2 to 10 µM; at NaV1.8 it was less than 2 µM.

Consider `NC(=O)c1cccc(NC(=O)c2ccccc2Cc2ccccc2)c1` [Compound 1], for which the IC50 on NaV1.3 [1] was more than 20 µM.
